Experimental findings from publication PMC8717366, “Synthesis and Pharmacological Characterization of Visabron, a Backbone Cyclic Peptide Dual Antagonist of α4β1 (VLA-4)/α9β1 Integrin for Therapy of Multiple Sclerosis” (JACS Au, 2021) are described below.

Like-named read-outs stand apart in the source and are kept apart here. Numbered stars: 1 amine (or outer) side, 2 acyl side, 3 side chain; on linkers, the order of the positions; unused ones are H or OH. Bridge positions count the residues as written; N and C are the ends. Square brackets hold non-standard residues; d marks the D form. Peptide text beside a SMILES is read from it. CO = O=C([*:1])[*:2]; Nlys = NCCCCNCC(=O)O

The conditions of series [1]: 48 h. As for the experimental part: Eight-week-old C57Bl/6 mice were obtained from Envigo animal breeding center in Israel. All experiments were approved by the Institutional Animal Care and Use Committee, and performed according to OECD guidelines for chemical testing. One group of five mice (7683–87) received visabron c (4–4) by iv injection in a volume of 0.2 mL/mouse at a dose of 10 mg/mice (about 500 mg/kg), and another group of five mice (7688–92) received per-os visabron c (4–4) at a dose of 10 mg/mice, dissolved in a nanoemulsifying drug delivery system,[48] in a bolus of 0.4 mL/mouse. After 48 h of exposure, the animals were sacrificed and the organs were harvested for the detection of possible toxicological lesions in the framework of a safety assessment. Then the organs were fixed in 4% formaldehyde, trimmed in a standard position per organ, and transferred to embedding cassettes. Paraffin blocks were sectioned at approximately 3–5 μm thickness. The sections were applied on a glass slide and stained with hematoxylin and eosin (H&E). Pictures were taken on a microscope (Olympus BX60) at magnifications of X4 and X10 using the microscope’s camera (Olympus DP73). An experienced pathologist (Dr. Loeb Emanuel) examined the slides. Microscopically findings were classified with standard pathological nomenclature and the severity of the findings was graded on a scale of minimal, mild, or severe. Grades of severity for microscopic findings were subjective; minimal was the least extent discernible and severe was the greatest extent possible.
Table S11. Histological pathological grades of organs slides obtained from mice treated for 48 h with 500 mg/kg Visabron c(4-4)*
Number** Heart Lung Kidney Intestine Large Stomach Spleen Liver Brain […]
*Grade 0: no signs of pathological changes; Grade 1: mild pathological changes; Grade 2: moderate pathological changes; Grade 3: severe pathological changes.

Series [2] relates to Jurkat cell migration across TNFα-stimulated HUVEC. Description: Jurkat transmigration across TNFα-stimulated HUVEC monolayer. It counts as cell-based, human. The following applies: at 24 h; 1 mg/mL of antagonist; Figure 2B,C. The method, then: Figure 2 Inhibitory effects of visabron c (4–4) on adhesion (A) and transmigration (B, C) of Jurkat cells through the monolayer of TNFα-activated HUVEC. (A) HUVEC were cultured on 96 well plates to 90% confluence in EGM-2 complete media. TNF-α (10 ng/mL) was added to each well for 16 h. Jurkat cells were labeled with calcein-AM ([…]) by 1 h incubation at 37 °C. After three washes, Jurkat cells (1 × 10^5 cells per mL) were mixed with appropriate concentrations of visabron or 10 μM visabres (inset) in EGM-2 media without FBS and supplements (growth factors) and incubated for 15 min at room temperature. […] Cell cultures extracts were measured using the fluorescence plate reader. […] Chambers were incubated at 37 °C, and measurement of fluorescence was performed at the indicated time points using a fluorescence plate reader with a set up bottom measurement option and using FITC filters. […]
trans-Endothelial leukocyte migration was assessed as follows: HUVEC cells were plated onto collagen type IV (5 μg/mL) coated polycarbonate inserts (Transwell, Costar, Cambridge, MA; diameter, 6.5 mm; pore size, 8 μm for a 24-well plate) in serum-containing endothelial cell growth medium and allowed to grow to confluence over 72 h. […] The medium and all washes were pooled, and the fluorescence in each well was quantified with a SPECTRAFluor Plus plate reader at λex = 485 nm and λem = 530 nm. […]

Setting [3] is: 500 mg/kg i.v., all five mice 7683-7687.
Setting [4] is: 500 mg/kg per os, all five mice 7688-7692.

Take `CSCC[C@@H]1NC(=O)[C@H]([C@@H](C)O)NC(=O)CN(C(=O)[C@@H](N)CCCCN)CCCCNC(=O)NCCCCN(CC(=O)N[C@@H](CC(C)C)C(N)=O)C(=O)[C@H](CC(=O)O)NC(=O)[C@H](CC(C)C)NC1=O` [visabron c (4–4)] (H-K[Nlys]TMLD[Nlys]L-NH2; linker 2-7 via CO): the “Histological pathological grade, Brain” value in series [1] (setting [3]) and in series [1] (setting [4]) was 0 in each case. The “Histological pathological grade, Heart” value in series [1] (setting [3]) and in series [1] (setting [4]) was 0 throughout. The “Histological pathological grade, Kidney” value in series [1] (setting [3]) and in series [1] (setting [4]) was 0 throughout. Besides, the “Histological pathological grade, Liver” value in series [1] (setting [3]) and in series [1] (setting [4]) was 0 each time. Further, the “Histological pathological grade, Lung” value in series [1] (setting [3]) and in series [1] (setting [4]) was 0 throughout. In addition, the “Histological pathological grade, Small Intestine” value in series [1] (setting [3]) and in series [1] (setting [4]) was 0 in each case. For the same compound, the “Histological pathological grade, Spleen” value in series [1] (setting [3]) and in series [1] (setting [4]) was 0 throughout. Besides, the “Histological pathological grade, Stomach” value in series [1] (setting [3]) and in series [1] (setting [4]) was 0 each time. The “Histological pathological grade, Large Intestine” value in series [1] (500 mg/kg i.v., mouse 7683) came out at 0; in series [1] (500 mg/kg i.v., mouse 7684, finding considered accidental, most probably not related to the tested compound), 3; in series [1] (500 mg/kg i.v., mouse 7685, finding considered accidental, most probably not related to the tested compound), 3; in series [1] (500 mg/kg i.v., mouse 7686) it was 0; in series [1] (500 mg/kg i.v., mouse 7687), 0; in series [1] (500 mg/kg per os, mouse 7688), 0. The “Histological pathological grade, Large Intestine” value is recorded as 0 in series [1] (500 mg/kg per os, mouse 7689); 2 in series [1] (500 mg/kg per os, mouse 7690, finding considered accidental, most probably not related to the tested compound); 0 in series [1] (500 mg/kg per os, mouse 7691); 0 in series [1] (500 mg/kg per os, mouse 7692). Besides, the “Short-term adverse pathological effects on major organs” value in series [1] (i.v. or per o.s., 500 mg/kg) is “without short-term adverse pathological effects”.

Regarding “natalizumab: clinical-grade monoclonal antibody anti-α4β1 produced by Biogen Co. [reference compound]”, the “Inhibition of Jurkat migration across TNFα-stimulated HUVEC” value in series [2] is given as “similar”.
